In US20220220128A1, “HETEROCYCLIC COMPOUNDS AS KINASE INHIBITORS, COMPOSITIONS COMPRISING THE HETEROCYCLIC COMPOUND, AND METHODS OF USE THEREOF” (JS Innopharm (Shanghai) Ltd, priority 2019, published 2022) one finds IC50 data, which are given here for 15 molecules.

One test addresses T1, human KDR kinase (Homo sapiens, UniProt P35968).
T1 construct: purchased Carna 08-191
Put plainly: KDR Kinase Assay (LanthaScreen TR-FRET enzymatic assay). Format: biochemical. Particulars: 1.2 nM KDR, 92 μM ATP. As to the method:
Compounds were tested in a LanthaScreen™ time-resolved fluorescence energy transfer (TR-FRET) enzymatic assay from Invitrogen. The assay used human KDR kinase (Carna 08-191). Test compounds were prepared and diluted in DMSO in 3-fold serial dilutions to 50× of the final testing concentrations. The compounds were then further diluted to 5× by the kinase reaction buffer (50 mM HEPES pH 7.5, 0.0015% Brij-35). The enzymatic reaction for compound testing was performed in a white 384-well polypropylene plate (Corning 3573) with a total reaction volume of 25 μl containing 1.2 nM KDR, 3 μM peptide substrate FAM-P22 (GL Biochem 112393), and 92 μM ATP (Sigma A7699-1G). The assay started with loading RET diluted in kinase reaction buffer to wells, followed by addition of equal volume of 5× compounds for 15-min incubation at the room temperature for pre-treatment. The enzymatic reaction was initiated by addition of mixture of the substrate and ATP prepared in kinase reaction buffer. After incubation at 28° C. for one hour, 25 μl of stopper buffer (a mixture of 100 mM HEPES pH 7.5 buffer, 0.015% Brij-35, 50 mM EDTA and 0.2% of coating reagent 3 (Cliper Lifesciences)) and produce TR-FRET signals. After 30 minutes of incubation at room temperature, the plate was read in a Caliper with the following settings: Excitation 340 nm (30)/Emission1 495 nm (10)/Emission2 520 nm (25). The TR-FRET values were dimensionless numbers that were calculated as the ratio of the acceptor ([…]) signal to the donor (Terbium) signal. Percent of control was calculated as the percentage of compound-treated vs 1% DMSO vehicle-treated. The dose-response curves were generated and the IC50s were calculated by nonlinear sigmoid curve fitting using XLFit.

The subject of another test is TT cells. As to the kind of experiment: TT Cell Proliferation Assay (WST-8, 8 days). Format: cell-based. Particulars: Homo sapiens, TT, 192 h, growth inhibition in TT cells, read-out: TT Cellular Activity. As to the method: Compounds disclosed herein were tested for the inhibition of RET by a cancer cell proliferation assay commonly known as MTT assay. In this assay, a complete media was prepared by adding 10% fetal bovine serum to RPMI-1640 medium (Life technology). TT cells were added to each of 88 wells of a 96 well plate at a seeding density of 6,000 cells/well/90 μL. The cells were allowed to attach to the plate by incubating at 37° C. for 24 hours. The compound was dissolved in DMSO (SIGMA). A solution of test compound was prepared in complete media by serial dilution to obtain the following concentrations: 50 μM, 15 μM, 5 μM, 1.5 μM, 0.5 μM, 0.15 μM, 0.05 μM, 0.015 μM and 0.005 μM. The test compound solution (10 μL) was added to each of 80 cell-containing wells. The final concentrations of the compound were following: 5 μM, 1.5 μM, 0.5 μM, 0.15 μM, 0.05 μM, 0.015 μM, 0.005 μM, 0.0015 μM and 0.0005 μM. The final concentration of DMSO is 0.5%. To the 8 remaining cell-containing wells, only complete media (containing 0.5% DMSO) was added to form a control group in order to measure maximal proliferation. To the remaining 8 empty wells, complete media was added to for a vehicle control group in order to measure background. The plates were incubated at 37° C. for 8 days. 10 μL WST-8 solution (DOJINDO, Cell Counting KIT-8) was added to each well. The plates were further incubated at 37° C. for 5 hours, and then read for the absorbance using a microplate reader at 450 nm. The IC50 was calculated using GraphPad Prism.

The next test has as its target T2, human RET kinase (Homo sapiens, UniProt P07949).
T2 construct: purchased Carna 08-159
Put plainly: RET Kinase Assay (LanthaScreen TR-FRET enzymatic assay). Format: biochemical. Particulars: 7 nM RET, 23 μM ATP. The procedure: Compounds were tested in a LanthaScreen™ time-resolved fluorescence energy transfer (TR-FRET) enzymatic assay from Invitrogen. The assay used human RET kinase (Carna 08-159). Test compounds were prepared and diluted in DMSO in 3-fold serial dilutions to 50× of the final testing concentrations. The compounds were then further diluted to 5× by the kinase reaction buffer (50 mM HEPES pH 7.5, 0.0015% Brij-35). The enzymatic reaction for compound testing was performed in a white 384-well polypropylene plate (Corning 3573) with a total reaction volume of 25 μl containing 7 nM RET, 3 μM peptide substrate FAM-P2 (GL Biochem 112394), and 23 μM ATP (Sigma A7699-1G). The assay started with loading RET diluted in kinase reaction buffer to wells, followed by addition of equal volume of 5× compounds for 15-min incubation at the room temperature for pre-treatment. The enzymatic reaction was initiated by addition of mixture of the substrate and ATP prepared in kinase reaction buffer. After incubation at 28° C. for one hour, 25 μl of stopper buffer (a mixture of 100 mM HEPES pH 7.5 buffer, 0.015% Brij-35, 50 mM EDTA and 0.2% of coating reagent 3 (Cliper Lifesciences)) and produce TR-FRET signals. After 30 minutes of incubation at room temperature, the plate was read in a Caliper with the following settings: Excitation 340 nm (30)/Emission1 495 nm (10)/Emission2 520 nm (25). The TR-FRET values were dimensionless numbers that were calculated as the ratio of the acceptor ([…]) signal to the donor (Terbium) signal. Percent of control was calculated as the percentage of compound-treated vs 1% DMSO vehicle-treated. The dose-response curves were generated and the IC50s were calculated by nonlinear sigmoid curve fitting using XLFit.

Molecules are shown by their SMILES.

T2 sequence (P07949 29-1114): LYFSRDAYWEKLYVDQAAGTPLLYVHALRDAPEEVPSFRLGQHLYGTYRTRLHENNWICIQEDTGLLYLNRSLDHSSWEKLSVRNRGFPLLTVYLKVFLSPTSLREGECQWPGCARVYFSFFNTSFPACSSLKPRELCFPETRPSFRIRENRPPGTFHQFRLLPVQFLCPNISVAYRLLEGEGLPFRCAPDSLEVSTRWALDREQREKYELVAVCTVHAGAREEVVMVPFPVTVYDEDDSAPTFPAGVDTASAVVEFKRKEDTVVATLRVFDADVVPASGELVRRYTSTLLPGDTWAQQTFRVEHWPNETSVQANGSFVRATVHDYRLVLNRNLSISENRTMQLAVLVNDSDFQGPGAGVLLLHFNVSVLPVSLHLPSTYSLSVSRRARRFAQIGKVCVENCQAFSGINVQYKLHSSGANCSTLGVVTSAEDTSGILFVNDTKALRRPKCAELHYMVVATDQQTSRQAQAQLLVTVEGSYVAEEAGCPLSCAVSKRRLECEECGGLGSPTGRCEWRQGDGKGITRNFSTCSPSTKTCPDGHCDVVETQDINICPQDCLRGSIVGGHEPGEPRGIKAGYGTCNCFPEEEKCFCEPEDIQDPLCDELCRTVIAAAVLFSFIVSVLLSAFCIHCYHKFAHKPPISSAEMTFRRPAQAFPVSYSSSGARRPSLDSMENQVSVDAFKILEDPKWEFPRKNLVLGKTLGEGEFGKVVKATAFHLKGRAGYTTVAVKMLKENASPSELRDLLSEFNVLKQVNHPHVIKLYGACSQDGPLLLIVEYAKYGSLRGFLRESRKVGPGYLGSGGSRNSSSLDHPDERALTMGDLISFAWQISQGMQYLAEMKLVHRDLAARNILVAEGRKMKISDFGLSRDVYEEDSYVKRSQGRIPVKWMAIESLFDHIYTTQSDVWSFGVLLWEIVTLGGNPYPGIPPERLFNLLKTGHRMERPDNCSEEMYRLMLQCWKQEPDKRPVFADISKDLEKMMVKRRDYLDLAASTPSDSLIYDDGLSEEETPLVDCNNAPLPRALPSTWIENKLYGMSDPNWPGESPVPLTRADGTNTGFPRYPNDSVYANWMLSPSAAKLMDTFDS
T1 sequence (P35968 20-1356): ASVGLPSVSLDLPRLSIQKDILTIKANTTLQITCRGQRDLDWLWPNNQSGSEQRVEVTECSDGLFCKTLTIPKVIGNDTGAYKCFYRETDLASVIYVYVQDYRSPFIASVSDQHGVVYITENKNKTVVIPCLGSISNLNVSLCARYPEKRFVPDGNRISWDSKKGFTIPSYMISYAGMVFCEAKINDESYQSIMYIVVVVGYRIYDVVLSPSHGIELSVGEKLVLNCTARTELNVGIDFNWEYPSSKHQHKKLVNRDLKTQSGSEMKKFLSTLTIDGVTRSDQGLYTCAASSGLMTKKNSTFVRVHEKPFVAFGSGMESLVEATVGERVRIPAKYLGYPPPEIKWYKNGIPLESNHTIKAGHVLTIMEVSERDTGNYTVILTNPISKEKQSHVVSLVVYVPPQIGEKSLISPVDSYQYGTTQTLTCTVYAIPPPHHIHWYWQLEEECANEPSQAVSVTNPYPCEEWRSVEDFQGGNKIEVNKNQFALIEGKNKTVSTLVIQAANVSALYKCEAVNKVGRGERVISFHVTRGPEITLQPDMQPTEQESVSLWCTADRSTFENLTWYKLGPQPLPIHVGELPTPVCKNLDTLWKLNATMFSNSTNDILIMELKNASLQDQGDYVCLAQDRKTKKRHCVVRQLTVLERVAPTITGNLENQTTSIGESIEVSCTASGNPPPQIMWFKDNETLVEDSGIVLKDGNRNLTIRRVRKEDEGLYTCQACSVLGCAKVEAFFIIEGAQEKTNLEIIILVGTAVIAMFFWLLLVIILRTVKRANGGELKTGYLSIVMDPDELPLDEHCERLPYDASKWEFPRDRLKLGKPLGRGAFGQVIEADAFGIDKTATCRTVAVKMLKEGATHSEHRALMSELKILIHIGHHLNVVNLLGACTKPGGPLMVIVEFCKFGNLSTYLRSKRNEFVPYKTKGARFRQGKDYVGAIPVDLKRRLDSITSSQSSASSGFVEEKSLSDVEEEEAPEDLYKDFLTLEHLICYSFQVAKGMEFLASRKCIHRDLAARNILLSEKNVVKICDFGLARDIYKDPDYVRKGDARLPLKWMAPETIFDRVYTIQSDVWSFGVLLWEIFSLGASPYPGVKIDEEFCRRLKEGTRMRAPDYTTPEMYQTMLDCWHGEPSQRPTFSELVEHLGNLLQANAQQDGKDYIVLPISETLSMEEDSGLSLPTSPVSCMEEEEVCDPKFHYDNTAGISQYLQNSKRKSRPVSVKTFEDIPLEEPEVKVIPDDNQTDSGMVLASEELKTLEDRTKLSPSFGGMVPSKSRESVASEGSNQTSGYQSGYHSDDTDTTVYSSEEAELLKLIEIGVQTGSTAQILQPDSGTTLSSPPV

On to `COc1ccc(C(=O)N2C[C@@H]3CN(c4ccc(-c5cc(-c6cnn(C)c6)cn6ncc(C#N)c56)cn4)C[C@@H]3C2)cn1` [Example 1, 4-(6-((3aR,6aS)-5-(6-methoxynicotinoyl)hexahydropyrrolo[3,4-c]pyrrol-2(1H)-yl)pyridin-3-yl)-6-(1-methyl-1H-pyrazol-4-yl)pyrazolo[1,5-a]pyridine-3-carbonitrile], for which the IC50 is 10 to 50 nM against human KDR kinase, 10 to 50 nM in the test with TT cells and ≤ 10 nM against human RET kinase.

With `CC(C)C(O)C(=O)N1C[C@@H]2CN(c3ccc(-c4cc(-c5cnn(C)c5)cn5ncc(C#N)c45)cn3)C[C@@H]2C1` (stereo partly drawn) [Example 2], the IC50 against human KDR kinase was 10 to 50 nM; in the test with TT cells, 10 to 50 nM; against human RET kinase it was ≤ 10 nM.

In the case of `Cn1cc(-c2cc(-c3ccc(N4C[C@H]5CN(C(=O)C(O)c6ccccc6)C[C@H]5C4)nc3)c3c(C#N)cnn3c2)cn1` (stereo partly drawn) [Example 3, 4-(6-((3aR,6aS)-5-(2-hydroxy-2-phenylacetyl)hexahydropyrrolo[3,4-c]pyrrol-2(1H)-yl)pyridin-3-yl)-6-(1-methyl-1H-pyrazol-4-yl)pyrazolo[1,5-a]pyridine-3-carbonitrile], the results for the IC50 at human KDR kinase, in the test with TT cells and against human RET kinase were 10 to 50 nM, 10 to 50 nM and ≤ 10 nM, respectively.

Turning to `CCOc1cc(-c2ccc(N3C[C@@H]4[C@H](C3)[C@H]4NC(=O)c3ncccc3Cl)nc2)c2c(C#N)cnn2c1` [Example 38, 3-chloro-N-((1R,5S,6s)-3-(5-(3-cyano-6-ethoxypyrazolo[1,5-a]pyridin-4-yl)pyridin-2-yl)-3-azabicyclo[3.1.0]hexan-6-yl)picolinamide], the IC50 against human KDR kinase and in the test with TT cells was > 100 nM each time.

`CCOc1cc(-c2ccc(N3C[C@@H]4[C@H](C3)[C@@H]4NC(=O)c3ncccc3Cl)nc2)c2c(C#N)cnn2c1` [Example 43, 3-chloro-N-((1R,5S,6r)-3-(5-(3-cyano-6-ethoxypyrazolo[1,5-a]pyridin-4-yl)pyridin-2-yl)-3-azabicyclo[3.1.0]hexan-6-yl)picolinamide]: the IC50 at human KDR kinase and with TT cells was > 100 nM throughout.

As for `CCOc1cc(-c2ccc(N3C[C@H]4C[C@@H](NC(=O)c5ncccc5Cl)C[C@H]4C3)nc2)c2c(C#N)cnn2c1` [Example 48, 3-chloro-N-((3aR,5r,6aS)-2-(5-(3-cyano-6-ethoxypyrazolo[1,5-a]pyridin-4-yl)pyridin-2-yl)octahydrocyclopenta[c]pyrrol-5-yl)picolinamide], the IC50 is 10 to 50 nM against human KDR kinase and ≤ 10 nM in the test on TT cells.

`CCOc1cc(-c2ccc(N3C[C@H]4C[C@H](NC(=O)c5ncccc5Cl)C[C@H]4C3)nc2)c2c(C#N)cnn2c1` [Example 49, 3-chloro-N-((3aR,5s,6aS)-2-(5-(3-cyano-6-ethoxypyrazolo[1,5-a]pyridin-4-yl)pyridin-2-yl)octahydrocyclopenta[c]pyrrol-5-yl)picolinamide]: the IC50 against human KDR kinase and in the test on TT cells was 10 to 50 nM throughout.

For `CCOc1cc(-c2ccc(N3C[C@@H]4C[C@@](C)(NC(=O)c5ncccc5Cl)C[C@@H]4C3)nc2)c2c(C#N)cnn2c1` [Example 51, 3-chloro-N-((3aR,5s,6aS)-2-(5-(3-cyano-6-ethoxypyrazolo[1,5-a]pyridin-4-yl)pyridin-2-yl)-5-methyloctahydrocyclopenta[c]pyrrol-5-yl)picolinamide], the IC50 at human KDR kinase and in the test on TT cells was 10 to 50 nM each time.

As to `CCOc1cc(-c2ccc(N3C[C@@H]4[C@@H](CNC(=O)c5ncccc5Cl)[C@@H]4C3)nc2)c2c(C#N)cnn2c1` [Example 94, 3-chloro-N-(((1R,5S,6s)-3-(5-(3-cyano-6-ethoxypyrazolo[1,5-a]pyridin-4-yl)pyridin-2-yl)-3-azabicyclo[3.1.0]hexan-6-yl)methyl)picolinamide], the IC50 is 50 to 100 nM at human KDR kinase and 10 to 50 nM in the test with TT cells.

Take `COc1ccc(NC(=O)C23CC4CC(C2)N(c2cnc(-c5cc(-c6cnn(C)c6)cn6ncc(C#N)c56)cn2)C(C4)C3)cn1` [Example 114, (1R,3S,5s,7s)-2-(5-(3-cyano-6-(1-methyl-1H-pyrazol-4-yl)pyrazolo[1,5-a]pyridin-4-yl)pyrazin-2-yl)-N-(6-methoxypyridin-3-yl)-2-azaadamantane-5-carboxamide]: the IC50 on human RET kinase was ≤ 10 nM.

As to `COc1ccc(C(=O)N[C@]2(C)C[C@H]3CN(c4ccc(-c5cc(-c6ccn(C)n6)cn6ncc(C#N)c56)cn4)C[C@H]3C2)cn1` [Example 122, N-((3aR,5s,6aS)-2-(5-(3-cyano-6-(1-methyl-1H-pyrazol-3-yl)pyrazolo[1,5-a]pyridin-4-yl)pyridin-2-yl)-5-methyloctahydrocyclopenta[c]pyrrol-5-yl)-6-methoxynicotinamide], the figures for the IC50 against human KDR kinase and against human RET kinase were 10 to 50 nM and ≤ 10 nM, respectively.

Take `CC(=O)NC12CC3CC(C1)N(c1ccc(-c4cc(OCC(C)(C)O)cn5ncc(C#N)c45)cn1)C(C3)C2` [Example 130, N-((1R,3S,5s,7s)-2-(5-(3-cyano-6-(2-hydroxy-2-methylpropoxy)pyrazolo[1,5-a]pyridin-4-yl)pyridin-2-yl)-2-azaadamantan-5-yl)acetamide]: the IC50 at human KDR kinase is > 100 nM; at human RET kinase, ≤ 10 nM.

On to `CCOc1cc(-c2ccc(N3C4CC5CC3CC(C(=O)Nc3ccc(OC)nc3)(C5)C4)nc2)c2c(C#N)cnn2c1` [Example 134, (1R3S,5s,7s)-2-(5-(3-cyano-6-ethoxypyrazolo[1,5-a]pyridin-4-yl)pyridin-2-yl)-N-(6-methoxypyridin-3-yl)-2-azaadamantane-5-carboxamide], for which the IC50 at human RET kinase is ≤ 10 nM.

In the case of `COc1ccc(NC(=O)[C@H]2[C@@H]3CN(c4ccc(-c5cc(OCC(C)(C)O)cn6ncc(C#N)c56)cn4)C[C@@H]32)cn1` [Example 175, (1R,5S,6r)-3-(5-(3-cyano-6-(2-hydroxy-2-methylpropoxy)pyrazolo[1,5-a]pyridin-4-yl)pyridin-2-yl)-N-(6-methoxypyridin-3-yl)-3-azabicyclo[3.1.0]hexane-6-carboxamide], the IC50 on human RET kinase was ≤ 10 nM.

For the molecule `Cn1cc(-c2cc(-c3ccc(N4C[C@@H]5[C@@H](CNC(=O)c6c(F)cccc6Cl)[C@@H]5C4)nc3)c3c(C#N)cnn3c2)cn1` [Example 187, 2-chloro-N-(((1R,5S,6s)-3-(5-(3-cyano-6-(1-methyl-1H-pyrazol-4-yl)pyrazolo[1,5-a]pyridin-4-yl)pyridin-2-yl)-3-azabicyclo[3.1.0]hexan-6-yl)methyl)-6-fluorobenzamide], the IC50 on human KDR kinase and at human RET kinase was ≤ 10 nM in each case.
